# Laboratory results published in US20130109714A1, “NEURODEGENERATIVE DISEASE THERAPEUTIC AGENT” (National University Corporation Hokkaido University, priority 2010, published 2013).
# Assays:
# [1] = tested on: cerebral stroke model rat; details: in vivo
# [2] = tested on: primary nerve cells of the rat ventral midbrain; experiment: H2O2-induced cell death in primary nerve cells, MTT assay; assay type: cell-based; details: 1 μM compound for 20 h, then 200 μM H2O2 for 3 h
# Experimental: From germinal cells of a rat at 17-19 days pregnant, primary nerve cells of the rat ventral midbrain were prepared. To evaluate presence of dopamine-producing neurons in a cell culture, the cell culture was immunostained with anti-NeuN antibody and anti-TH antibody to identify each of whole neurons and dopamine-producing neurons, and cell nuclei were stained with DAPI.
# Therefore, it was clarified that No. 23 provides a resistance against nerve cell death induced by oxidative stress.
# [3] = tested on: mouse injected with 6-OHDA to the unilateral (left) midbrain; experiment: 6-OHDA Parkinson's disease model, methamphetamine-induced rotational behavior; assay type: in vivo; details: administered together with methamphetamine, up to 7 days after administration
# Experimental: To evaluate effects of a DJ-1 bound compound on Parkinson's disease in vivo, 6-OHDA was stereotactically injected to the unilateral (left) midbrain of a mouse. Then, the DJ-1 bound compound (No. 23) was administered together with methamphetamine. Here, administration of methamphetamine to an animal induces ipsilateral movement relative to the injection site. Accordingly, by the administration of methamphetamine to a mouse, a rotational behavior is observed.
structure (smiles),measurement,setting,value
COc1cc(C(=O)Nc2ccc(-c3cn4cccc(C)c4n3)cc2)cc(OC)c1OC [No. 23],"cell death in brain, TTC staining, infarct area and volume (FIGS. 4-7)",[1],significantly suppresses cell death
same,cell death caused by hydrogen peroxide in primary nerve cells (FIG. 12),[2],no cell death was observed
same,"rotational behavior, number of rotations (FIGS. 15 and 16)",[3],significantly suppressed
